Test results from the supplement of paper PMC13380429.

Legend:
Details in all cases: 72 h
Calu-3 [1] = experiment: cell viability relative to DMSO; higher = less toxic
Vero E6 [2] = experiment: as above
Caco-2 [3] = experiment: as above
HepG2 [4] = experiment: as above
Calu-3 [5] = experiment: drug sensitivity score (DSS) for viability; higher = more toxic; extreme values may be limits of the assay
Vero E6 [6] = experiment: as above
Caco-2 [7] = experiment: as above
HepG2 [8] = experiment: as above
Vero E6 [9] = experiment: relative viability EC50 (midpoint between 100% and the lowest measured viability); higher = less toxic
Caco-2 [10] = experiment: as above
HepG2 [11] = experiment: as above
U2OS [12] = experiment: cell viability relative to DMSO; higher = less toxic
U2OS [13] = experiment: drug sensitivity score (DSS) for viability; higher = more toxic; extreme values may be limits of the assay
Calu-3 [14] = experiment: relative viability EC50 (midpoint between 100% and the lowest measured viability); higher = less toxic
U2OS [15] = experiment: as above

SMILES | cell viability (Calu-3 [1]; 1 nM) | cell viability (Calu-3 [1]; 10 nM) | cell viability (Calu-3 [1]; 100 nM) | cell viability (Calu-3 [1]; 1000 nM) | cell viability (Calu-3 [1]; 10000 nM) | cell viability (Vero E6 [2]; 1 nM) | cell viability (Vero E6 [2]; 10 nM) | cell viability (Vero E6 [2]; 100 nM) | cell viability (Vero E6 [2]; 1000 nM) | cell viability (Vero E6 [2]; 10000 nM) | cell viability (Caco-2 [3]; 1 nM) | cell viability (Caco-2 [3]; 10 nM) | cell viability (Caco-2 [3]; 100 nM) | cell viability (Caco-2 [3]; 1000 nM) | cell viability (Caco-2 [3]; 10000 nM) | cell viability (HepG2 [4]; 1 nM) | cell viability (HepG2 [4]; 10 nM) | cell viability (HepG2 [4]; 100 nM) | cell viability (HepG2 [4]; 1000 nM) | cell viability (HepG2 [4]; 10000 nM) | drug sensitivity score (Calu-3 [5]) | drug sensitivity score (Vero E6 [6]) | drug sensitivity score (Caco-2 [7]) | drug sensitivity score (HepG2 [8]) | relative viability EC50 (Vero E6 [9]) | relative viability EC50 (Caco-2 [10]) | relative viability EC50 (HepG2 [11]) | cell viability (U2OS [12]; 1 nM) | cell viability (U2OS [12]; 10 nM) | cell viability (U2OS [12]; 100 nM) | cell viability (U2OS [12]; 1000 nM) | cell viability (U2OS [12]; 10000 nM) | drug sensitivity score (U2OS [13]) | relative viability EC50 (Calu-3 [14]) | relative viability EC50 (U2OS [15])
CCOC(=O)N1c2ccc(C(F)(F)F)cc2[C@@H](N(Cc2cc(C(F)(F)F)cc(C(F)(F)F)c2)C(=O)OC)C[C@H]1CC | 96.4% | 98.9% | 98.4% | 86% | 69% | 98.3% | 99.1% | 96.2% | 98.4% | 85.2% | 108% | 108% | 100% | 101% | 87.2% | 99.3% | 106% | 94.3% | 93.6% | 75.5% | 2.8 | 0.4 | 0.1 | 1.5 | > 10 µM | > 10 µM | > 10 µM |  |  |  |  |  |  |  | 
CNC(=O)c1c(F)cccc1Nc1nc(Nc2cc3c(cc2OC)CCN3C(=O)CN(C)C)nc2[nH]ccc12 | 99.4% | 104% | 103% | 95.1% | 91.3% | 101% | 97% | 94.1% | 93.4% | 101% | 103% | 93.4% | 92.3% | 85.7% | 52.8% | 100% | 101% | 77.3% | 53% | 56.5% | 0 | 0 | 4.1 | 11.5 | > 10 µM |  |  | 97.7% | 98.9% | 100% | 87.9% | 78.5% | 2 | > 10 µM | > 10 µM
COc1ccc(-n2[nH]c3c4c(ncc3c2=O)CCCCC4)cc1 | 110% | 98.7% | 99.8% | 97.2% | 112% | 102% | 105% | 100% | 98.2% | 99.6% | 99.9% | 107% | 95.7% | 107% | 94.2% |  |  |  |  |  | 0 | 0 | 0 |  | > 10 µM | > 10 µM |  | 96.4% | 100% | 94.2% | 103% | 95.9% | 0 | > 10 µM | > 10 µM
COc1cccc(-c2cc(=O)c3ccccc3o2)c1N | 107% | 103% | 103% | 106% | 83.7% | 109% | 108% | 105% | 104% | 92% | 98.5% | 108% | 92.7% | 95.9% | 91.4% | 99.7% | 87.8% | 94.1% | 91.8% | 64.2% | 0.2 | 0 | 0 | 2.9 | > 10 µM | > 10 µM |  | 99.5% | 97.7% | 98.7% | 101% | 92% | 0 | > 10 µM | > 10 µM
COc1ccccc1N1CCN(CCN(C(=O)C2CCCCC2)c2ccccn2)CC1 | 93.6% | 86.7% | 99% | 92.2% | 84.3% | 104% | 102% | 104% | 97.2% | 99.1% | 99.1% | 101% | 93.5% | 102% | 94% |  |  |  |  |  | 0 | 0 | 0 |  | > 10 µM | > 10 µM |  | 95.6% | 99.6% | 102% | 100% | 95.5% | 0 | > 10 µM | > 10 µM
Cc1cc(C)c(N(Cc2ccccc2)S(=O)(=O)c2ccc(OCCNC(=O)c3cc4ccccc4o3)cc2)c(C(=O)NO)c1 | 95.2% | 103% | 96.9% | 99.4% | 73.4% | 105% | 107% | 105% | 104% | 47% | 94.1% | 101% | 105% | 88.8% | 42% | 93.4% | 98.9% | 91% | 94.5% | 37.8% | 1.1 | 2.5 | 5 | 4.3 | 3.55 µM | 1.77 µM | 2.43 µM | 104% | 96.3% | 100% | 98.5% | 63.9% | 1.9 |  | 
Cc1cc(CN2CCN(c3c(Br)cnc4nc(-c5ccc(N6CCN(C)CC6)cc5)[nH]c34)CC2)no1 | 97.8% | 103% | 94.2% | 114% | 105% | 96% | 96.6% | 94.1% | 83.6% | 84.2% | 101% | 99.3% | 99.7% | 96.8% | 84.7% | 101% | 98% | 106% | 65.6% | 59.9% | 0 | 1.5 | 0.6 | 6 | > 10 µM | > 10 µM |  | 98.7% | 106% | 98.1% | 102% | 74.8% | 0.8 | > 10 µM | 
